Test results from patent publication US7919488B2, “Therapeutic compounds” (Pfizer Inc., priority 2006, dated 2011).

Tests used:
Assay type in all cases: biochemical
CYP3A4 [1] = biological target: T1, CYP3A4 (Homo sapiens, UniProt P08684); assay: IC50 against CYP3A4 by inhibition of testosterone metabolism in human liver microsomes; conditions: 0.1 mg/mL human liver microsomes, 25 μM testosterone, 1 mM NADPH, 6-β-OH-testosterone production, eight minutes; read-out: IC50, μM (HLM, testosterone)
T1 construct: 0.1 mg/mL human liver microsomes; from tissue; host or cells: human liver microsomes
Procedure: 2. Determination of IC50 Against CYP3A4 by Measurement of Inhibition of Testosterone Metabolism
This assay was performed using a standard 96 well plate design. […] Quantitation of metabolite peak area ratio against an internal standard is determined by LC-MS/MS analysis. The production of 6-β-OH-testosterone from testosterone metabolism is determined after incubation for eight minutes by comparison to a standard curve generated for the metabolite
(§1) Samples were analyzed in the MRM mode using a Sciex API 3000 mass spectrometer (Applied Biosystems, Foster City, Calif.) with a Paradigm MS4 binary pump (Michrom BioResources Inc., Auburn, Calif.) and a LEAP CTC PAL autosampler (LEAP Technologies, Carrboro, N.C.). A Phenomenex Synergi, 4μ, Polar-RP, 10×2.0 mm column (Phenomenex, Torrance, Calif.) was used for separation with a mobile phase composition of: 0.1% formic acid in water (A) and: 0.1% formic acid in methanol (B). The following gradient was used: […]
(§2) The sample injection volume was 10 μL and flow was split post-column with 0.4 mL/min going to the mass spectrometer. Analysis was performed using the following API 3000 mass spectrometer settings: […]

CYP3A4 [2] = biological target: T1, CYP3A4; assay: IC50 against CYP3A4 by inhibition of midazolam metabolism in human liver microsomes; conditions: 0.1 mg/mL human liver microsomes, 2 μM midazolam, 1 mM NADPH, 1-hydroxymidazolam production, eight minutes; read-out: IC50, μM (HLM, midazolam)
Procedure: 3. Determination of IC50 Against CYP3A4 by Measurement of Inhibition of Midazolam Metabolism
This assay was performed using a standard 96 well plate design. […] The incubation substrate mix contains 2 μM midazolam, 0.1 mg/mL human liver microsomes, 1 mM NADPH, and potassium phosphate buffer (100 mM, pH 7.4). Quantitation of metabolite peak area ratio against internal standard is determined by LC-MS/MS analysis. The production of 1-hydroxymidazolam from midazolam metabolism is determined after incubation for eight minutes by comparison to a standard curve generated for the metabolite.
as §1, §2

[3] = biological target: T2, recombinant CYP3A4-b5 enzyme (Baculosomes®) (Homo sapiens, UniProt P08684); assay: Kiapp against recombinant CYP3A4 enzyme (Baculosomes), BFC substrate; conditions: recombinant CYP3A4-b5 (Invitrogen), 5 uM BFC, 200 uM NADPH, pre-incubation at least 30 minutes, pH 7.0, room temperature
T2 construct: purchased Invitrogen (Carlsbad, Calif.)
Procedure: 1. Determination of Compound Kiapp
A determination of the Kiapp of the compounds of the invention against recombinant CYP3A4 enzyme was performed as follows. The assay was performed in a 100 mM sodium phosphate buffer pH 7.0, 5 mM TCEP and containing 2% dimethylformamide (final concentration) upon addition of substrate and inhibitor. A typical reaction for the determination of Kiapp values was carried at room temperature in a solid black Costar u-bottom 96-well polypropylene plate. […] When pre-incubation was completed (˜30 min), the reaction was initiated by adding NADPH (200 uM, final concentration), and 7-benzyloxy-4-(trifluoromethyl)-coumarin (BFC) (5 uM, final concentration). The oxidation of the coumarin substrate was recorded by a 96-well plate reader POLARstar (BMG LABTECH, Offenburg, Germany).
The initial reaction velocities were measured during the first 5 min of the reaction when the release of the fluorescent product is linear with time, in the absence and in the presence of various concentrations of inhibitors.
The fluorescent substrate BFC was purchased from Sigma (St Louis, Mo.). Two commercial sources of recombinant enzymes were used in this study: recombinant CYP3A4-b5 enzyme (Baculosomes®) was purchased from Invitrogen (Carlsbad, Calif.) and the recombinant CYP3A4+b5 enzyme (Supersomes®) was purchased from BD Biosciences (Woburn, Mass.).

T1 sequence (P08684 whole entry): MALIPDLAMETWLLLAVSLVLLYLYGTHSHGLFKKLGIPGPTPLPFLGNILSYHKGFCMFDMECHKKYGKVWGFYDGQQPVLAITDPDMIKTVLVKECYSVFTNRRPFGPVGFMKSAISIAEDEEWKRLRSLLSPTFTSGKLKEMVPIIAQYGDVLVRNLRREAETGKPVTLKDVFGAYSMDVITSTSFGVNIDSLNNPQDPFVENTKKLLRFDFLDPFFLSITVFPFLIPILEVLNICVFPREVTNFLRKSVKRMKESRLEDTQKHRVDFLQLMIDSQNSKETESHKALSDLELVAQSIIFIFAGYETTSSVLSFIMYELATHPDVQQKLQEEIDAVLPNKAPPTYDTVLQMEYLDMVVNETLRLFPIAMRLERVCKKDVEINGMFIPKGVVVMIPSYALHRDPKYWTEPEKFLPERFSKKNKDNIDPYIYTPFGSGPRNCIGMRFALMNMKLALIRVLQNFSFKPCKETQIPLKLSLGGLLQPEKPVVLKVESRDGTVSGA
T2 sequence (P08684 whole entry): as above

| SMILES | IC50 (CYP3A4 [1]) [µM] | IC50 (CYP3A4 [2]) [µM] | Ki [3] [µM] |
| --- | --- | --- | --- |
| O=C(c1ncccn1)N1CC(n2nc(-c3ccncc3)cc2Cc2ccc(F)cc2)C1 [Example 68, 2-({3-[5-(4-fluorobenzyl)-3-pyridin-4-yl-1H-pyrazol-1-yl]azetidin-1-yl}carbonyl)pyrimidine] | 0.081 | 0.091 | 0.137 |
| NC1CCN(C(=O)Cn2nc(-c3ccncc3)cc2Cc2ccc(F)cc2)CC1 [Example 8, 1-{[5-(4-fluorobenzyl)-3-pyridin-4-yl-1H-pyrazol-1-yl]acetyl}piperidin-4-amine] | 0.273 | 0.114 | 0.547 |
| CS(=O)(=O)N1CC(n2nc(-c3ccncc3)cc2Cc2ccc(F)cc2)C1 [Example 23, 4-{5-(4-fluorobenzyl)-1-[1-(methylsulfonyl)azetidin-3-yl]-1H-pyrazol-3-yl}pyridine] | 0.218 | 0.375 | 0.159 |
| O=C(c1ncc[nH]1)N1CC(n2nc(-c3ccncc3)cc2Cc2ccc(F)cc2)C1 [Example 24, 4-{5-(4-fluorobenzyl)-1-[1-(1H-imidazol-2-ylcarbonyl)azetidin-3-yl]-1H-pyrazol-3-yl}pyridine] | 0.047 | 0.027 | 0.0772 |
| N[C@@H]1CCN(C(=O)Cn2nc(-c3ccncc3)cc2Cc2ccc(F)cc2)C1 [Example 65, (3R)-1-{[5-(4-fluorobenzyl)-3-pyridin-4-yl-1H-pyrazol-1-yl]acetyl}pyrrolidin-3-amine] | 0.134 | 0.059 | 0.673 |
| O=C(Cn1nc(-c2ccncc2)cc1Cc1ccc(F)cc1)N1CCCC(O)C1 (stereo not drawn) [Example 76, 1-{[5-(4-fluorobenzyl)-3-pyridin-4-yl-1H-pyrazol-1-yl]acetyl}piperidin-3-ol] | 0.0333 | < 0.0184 | 0.117 |
| O=C(Cn1nc(-c2ccncc2)cc1Cc1ccc(F)cc1)NC1CCC1 [Example 53, N-cyclobutyl-2-[5-(4-fluorobenzyl)-3-pyridin-4-yl-1H-pyrazol-1-yl]acetamide] | 0.095 | 0.028 | 0.034 |
| CC(C)NC(=O)Cn1nc(-c2c[nH]cn2)cc1Cc1ccc(F)cc1 [Example 111, 2-[5-(4-fluorobenzyl)-3-(1H-imidazol-4-yl)-1H-pyrazol-1-yl]-N-isopropylacetamide] | 0.714 | 0.223 | 0.838 |
| CCC(=O)NC1CCN(C(=O)Cn2nc(-c3ccncc3)cc2Cc2ccc(F)cc2)CC1 [Example 101, N-(1-(2-[5-(4-fluorobenzyl)-3-pyridin-4-yl-1H-pyrazol-1-yl]acetyl}piperidin-4-yl)propanamide] | 0.035 | 0.0105 | 0.158 |
| Fc1ccc(Cc2cc(-c3ccncc3)nn2C2CN(C(c3ccccc3)c3ccccc3)C2)cc1 [Example 20, 4-[1-[1-(diphenylmethyl)azetidin-3-yl]-5-(4-fluorobenzyl)-1H-pyrazol-3-yl]pyridine] | 0.251 | 0.228 | 0.0365 |

These reach a lower IC50 (CYP3A4 [1]). Values come first.

| IC50 (CYP3A4 [1]) [µM] | IC50 (CYP3A4 [2]) [µM] | Ki [3] [µM] | SMILES |
| --- | --- | --- | --- |
| 0.032 | 0.028 | 0.185 | C[C@H](O)CNC(=O)Cn1nc(-c2ccncc2)cc1Cc1ccc(F)cc1 [Example 64, 2-[5-(4-fluorobenzyl)-3-pyridin-4-yl-1H-pyrazol-1-yl]-N-[(2S)-2-hydroxypropyl]acetamide] |
| 0.009 | 0.006 | 0.002 | CC(C)OC(=O)N(C)C1CCN(C(=O)Cn2nc(-c3ccncc3)cc2Cc2ccc(F)cc2)CC1 [Example 112, isopropyl (1-{[5-(4-fluorobenzyl)-3-pyridin-4-yl-1H-pyrazol-1-yl]acetyl}piperidin-4-yl)methylcarbamate] |
| 0.019 | 0.019 | 0.108 | Cn1ccnc1CNC(=O)Cn1nc(-c2ccncc2)cc1Cc1ccc(F)cc1 [Example 87, 2-[5-(4-fluorobenzyl)-3-pyridin-4-yl-1H-pyrazol-1-yl]-N-[(1-methyl-1H-imidazol-2-yl)methyl]acetamide] |
| 0.016 | 0.024 | 0.0753 | Cc1cc(CNC(=O)Cn2nc(-c3ccncc3)cc2Cc2ccc(F)cc2)no1 [Example 88, 2-[5-(4-fluorobenzyl)-3-pyridin-4-yl-1H-pyrazol-1-yl]-N-[(5-methylisoxazol-3-yl)methyl]acetamide] |
| 0.011 | 0.009 | 0.00676 | CCOC(=O)N(C)C1CCN(C(=O)Cn2nc(-c3ccncc3)cc2Cc2ccc(F)cc2)CC1 [Example 113] |
| 0.015 | 0.004 | 0.0338 | CCNC(=O)N(C)C1CCN(C(=O)Cn2nc(-c3ccncc3)cc2Cc2ccc(F)cc2)CC1 [Example 115, 3-ethyl-1-(1-{[5-(4-fluorobenzyl)-3-pyridin-4-yl-1H-pyrazol-1-yl]acetyl}piperidin-4-yl)-1-methylurea] |
| < 0.012 | < 0.012 | 0.0303 | O=C(Cn1nc(-c2ccncc2)cc1Cc1ccc(F)cc1)N1CCN(c2ncccn2)CC1 [Example 56, 2-(4-{[5-(4-fluorobenzyl)-3-pyridin-4-yl-1H-pyrazol-1-yl]acetyl}piperazin-1-yl)pyrimidine] |
| < 0.012 | 0.044 | 0.101 | O=C(Cn1nc(-c2ccncc2)cc1Cc1ccc(F)cc1)NCCN1CCOCC1 [Example 55, 2-[5-(4-fluorobenzyl)-3-pyridin-4-yl-1H-pyrazol-1-yl]-N-(2-morpholin-4-ylethyl)acetamide] |
| 0.026 | 0.026 | 0.226 | CN(C)[C@@H]1CCN(C(=O)Cn2nc(-c3ccncc3)cc2Cc2ccc(F)cc2)C1 [Example 72, (3R)-1-{[5-(4-fluorobenzyl)-3-pyridin-4-yl-1H-pyrazol-1-yl]acetyl}-N,N-dimethylpyrrolidin-3-amine] |
| 0.0215 | 0.0175 | 0.118 | O=C(Cn1nc(-c2ccncc2)cc1Cc1ccc(F)cc1)N1CCC[C@@H]1CO [Example 75, [(2R)-1-{[5-(4-fluorobenzyl)-3-pyridin-4-yl-1H-pyrazol-1-yl]acetyl}pyrrolidin-2-yl]methanol] |
| < 0.012 | < 0.012 | 0.0085 | CC(C)(CN1CCOCC1)NC(=O)Cn1nc(-c2ccncc2)cc1Cc1ccc(F)cc1 [Example 54, N-(1,1-dimethyl-2-morpholin-4-ylethyl)-2-[5-(4-fluorobenzyl)-3-pyridin-4-yl-1H-pyrazol-1-yl]acetamide] |
| 0.025 | 0.023 | 0.109 | CC(Cc1cnccn1)NC(=O)Cn1nc(-c2ccncc2)cc1Cc1ccc(F)cc1 (stereo not drawn) [Example 82, 2-[5-(4-fluorobenzyl)-3-pyridin-4-yl-1H-pyrazol-1-yl]-N-(1-methyl-2-pyrazin-2-ylethyl)acetamide] |
| 0.013 | 0.009 | 0.0222 | COC(=O)N(C)C1CCN(C(=O)Cn2nc(-c3ccncc3)cc2Cc2ccc(F)cc2)CC1 [Example 15, Methyl (1-{[5-(4-fluorobenzyl)-3-pyridin-4-yl-1H-pyrazol-1-yl]acetyl}piperidin-4-yl)methylcarbamate] |
| 0.008 | < 0.003 | 0.0141 | CC(C)OC(=O)NC1CCN(C(=O)Cn2nc(-c3ccncc3)cc2Cc2ccc(F)cc2)CC1 [Example 116, isopropyl (1-{[5-(4-fluorobenzyl)-3-pyridin-4-yl-1H-pyrazol-1-yl]acetyl}piperidin-4-yl)carbamate] |
| 0.012 | 0.019 | 0.0773 | Cc1noc(CNC(=O)Cn2nc(-c3ccncc3)cc2Cc2ccc(F)cc2)n1 [Example 90, 2-[5-(4-fluorobenzyl)-3-pyridin-4-yl-1H-pyrazol-1-yl]-N-[(3-methyl-1,2,4-oxadiazol-5-yl)methyl]acetamide] |
